Measurements reported in patent US8871756B2 (Hoffmann-La Roche Inc., priority 2011, dated 2014).

Tested on: RSV Long strain
Test: Viral cytopathic effect (CPE) assay, anti-RSV activity
Type: cell-based, Respiratory Syncytial Virus
Conditions: RSV Long strain (ATCC), cell viability after 6 days, Cell Counting kit-8
Outline: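 Cells (6×10^3/well, DMEM with 10% FBS) were infected next day with RSV Long strain, at a dose giving approximately 80–90% CPE, alongside serial half-log compound dilutions. Viability was read after 6 days by CCK-8 absorbance at 450 nm (reference 630 nm), and EC50 was derived from it.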

[1] = human respiratory syncytial virus, 144 h

EC50 [1]	EC50	Structure (SMILES)
0.005 µM	–	NCC1(CNc2cc(N3CC[S+]([O-])c4ccccc4C3)nc3ccc(Cl)cc23)COC1 (stereo not shown) [Example 18-9, N-{[3-(Aminomethyl)oxetan-3-yl]methyl}-6-chloro-2-(1-oxido-2,3-dihydro-1,4-benzothiazepin-4(5H)-yl)quinolin-4-amine]
0.0768 µM	–	Cc1ccc2nc(N3CCC(F)(F)c4ccccc4C3)cc(N(C)CCN)c2c1 [Example 111-3, N-[2-(5,5-Difluoro-1,3,4,5-tetrahydro-2H-2-benzazepin-2-yl)-6-methylquinolin-4-yl]-N-methylethane-1,2-diamine]
–	0.0003 µM	Cc1ccc2nc(N3CC[S+]([O-])c4ccccc4C3)nc(NCC3(CN)COC3)c2c1 (stereo not shown) [Example 62-1, N-{[3-(Aminomethyl)oxetan-3-yl]methyl}-6-methyl-2-(1-oxido-2,3-dihydro-1,4-benzothiazepin-4(5H)-yl)quinazolin-4-amine]
0.872 µM	–	Cc1ccc2nc(N3CCS(=O)(=O)c4ccccc4C3)cc(NCCO)c2c1F [Example 9-22, 2-{[2-(1,1-Dioxido-2,3-dihydro-1,4-benzothiazepin-4(5H)-yl)-5-fluoro-6-methylquinolin-4-yl]amino}ethanol]
1.98 µM	–	NCCNc1cc(N2CCCc3cc(Br)ccc3C2)nc2ccc(Cl)cc12 [Example 118-1, N-[2-(7-Bromo-1,3,4,5-tetrahydro-2H-2-benzazepin-2-yl)-6-chloroquinolin-4-yl]ethane-1,2-diamine]
2.35 µM	–	Cc1ccc2nc(N3CCS(=O)(=O)c4ccccc4C3)cc(N3CCC(CN)CC3)c2c1 [Example 9-1, 1-{1-[2-(1,1-Dioxido-2,3-dihydro-1,4-benzothiazepin-4(5H)-yl)-6-methylquinolin-4-yl]piperidin-4-yl}methanamine]
0.001 µM	–	Cc1ccc2nc(N3CCS(=O)(=O)c4ccccc4C3)cc(N[C@@H]3CNC[C@H]3O)c2c1 (relative stereo) [Example 28-3, trans-4-{[2-(1,1-Dioxido-2,3-dihydro-1,4-benzothiazepin-4(5H)-yl)-6-methylquinolin-4-yl]amino}pyrrolidin-3-ol]
2.64 µM	–	NCCNc1cc(N2CCCc3ccccc3C2)nc2ccc(OC(F)(F)F)cc12 [Example 118-23, N-[2-(1,3,4,5-Tetrahydro-2H-2-benzazepin-2-yl)-6-(trifluoromethoxy)quinolin-4-yl]ethane-1,2-diamine]
0.746 µM	–	Cc1ccc2nc(N3CCS(=O)(=O)c4ccccc4C3)nc(N)c2c1 [Example 59, 2-(1,1-Dioxido-2,3-dihydro-1,4-benzothiazepin-4(5H)-yl)-6-methylquinazolin-4-amine]
0.025 µM	–	Cc1ccc2nc(N3CCS(=O)(=O)c4ccccc4C3)cc(NCC(C)(C)CN)c2c1 [Example 9-14, N-[2-(1,1-Dioxido-2,3-dihydro-1,4-benzothiazepin-4(5H)-yl)-6-methylquinolin-4-yl]-2,2-dimethylpropane-1,3-diamine]
3.02 µM	–	Cc1cc2c(NCCO)cc(N3CCS(=O)(=O)c4ccccc4C3)nc2cc1F [Example 9-23, 2-{[2-(1,1-Dioxido-2,3-dihydro-1,4-benzothiazepin-4(5H)-yl)-7-fluoro-6-methylquinolin-4-yl]amino}ethanol]
0.002 µM	–	Cc1ccc2c(c1)S(=O)(=O)CCN(c1cc(NCC3(CN)COC3)c3cc(C)ccc3n1)C2 [Example 3-8, N-{[3-(Aminomethyl)oxetan-3-yl]methyl}-6-methyl-2-(8-methyl-1,1-dioxido-2,3-dihydro-1,4-benzothiazepin-4(5H)-yl)quinolin-4-amine]
0.062 µM	–	Cc1ccc2nc(N3CCC(F)(F)c4ccccc4C3)cc(NCCN)c2c1 [Example 111-6, N-[2-(5,5-Difluoro-1,3,4,5-tetrahydro-2H-2-benzazepin-2-yl)-6-methylquinolin-4-yl]ethane-1,2-diamine]
–	0.0013 µM	Cc1ccc2nc(N3CC[S+]([O-])c4ccccc4C3)nc(NCC3(CN)COC3)c2c1 (single isomer, unassigned; (+)) [Example 62-3, (+)-N-{[3-(Aminomethyl)oxetan-3-yl]methyl}-6-methyl-2-[1-oxido-2,3-dihydro-1,4-benzothiazepin-4(5H)-yl]quinazolin-4-amine]
0.261 µM	–	Cc1ccc2nc(N3CCS(=O)(=O)c4ccccc4C3)cc(NCC3COC3)c2c1 [Example 3-53, 2-(1,1-Dioxido-2,3-dihydro-1,4-benzothiazepin-4(5H)-yl)-6-methyl-N-(oxetan-3-ylmethyl)quinolin-4-amine]
0.061 µM	–	NC1(CNc2cc(N3CC[S+]([O-])c4ccccc4C3)nc3ccc(Cl)cc23)COC1 (stereo not shown) [Example 18-4, N-[(3-Aminooxetan-3-yl)methyl]-6-chloro-2-(1-oxido-2,3-dihydro-1,4-benzothiazepin-4 (5H)-yl)quinolin-4-amine]
0.264 µM	–	CNC(=O)CNc1cc(N2CCS(=O)(=O)c3ccccc3C2)nc2ccc(C)cc12 [Example 36-6, N^˜2^˜-[2-(1,1-Dioxido-2,3-dihydro-1,4-benzothiazepin-4(5H)-yl)-6-methylquinolin-4-yl]-N-methylglycinamide]
0.057 µM	–	Cc1ccc2nc(N3CC[S+]([O-])c4ccccc4C3)cc(NCC(F)(F)CN)c2c1 (stereo not shown) [Example 18-5, N-[2-(1-Oxido-2,3-dihydro-1,4-benzothiazepin-4(5H)-yl)-6-methylquinolin-4-yl]-2,2-difluoropropane-1,3-diamine]
0.778 µM	–	Cc1ccc2nc(N3CCS(=O)(=O)c4ccccc4C3)cc(OC3CCNC3)c2c1 (stereo not shown) [Example 98-1, 4-[6-Methyl-4-(pyrrolidin-3-yloxy)quinolin-2-yl]-2,3,4,5-tetrahydro-1,4-benzothiazepine 1,1-dioxide]
0.002 µM	–	Cc1ccc2nc(N3CCS(=O)(=O)c4ccccc4C3)cc(NCCS(=O)(=O)CCN)c2c1 [Example 75, N-{2-[(2-Aminoethyl)sulfonyl]ethyl}-2-(1,1-dioxido-2,3-dihydro-1,4-benzothiazepin-4(5H)-yl)-6-methylquinolin-4-amine]
0.173 µM	–	NCCNc1cc(N2CCCc3cccc(F)c3C2)nc2ccc(Cl)cc12 [Example 118-6, N-[6-Chloro-2-(9-fluoro-1,3,4,5-tetrahydro-2H-2-benzazepin-2-yl)quinolin-4-yl]ethane-1,2-diamine]
0.186 µM	–	Cc1ccc2nc(N3CCNc4ccccc4C3)cc(NCCN)c2c1 [Example 133-2, N-[6-Methyl-2-(1,2,3,5-tetrahydro-4H-1,4-benzodiazepin-4-yl)quinolin-4-yl]ethane-1,2-diamine]
1.65 µM	–	Cc1ccc2nc(N3CCS(=O)(=O)c4ccccc4C3)cc(NCC3(CN)CC(F)(F)C3)c2c1 [Example 3-12, N-{[1-(Aminomethyl)-3,3-difluorocyclobutyl]methyl}-2-(1,1-dioxido-2,3-dihydro-1,4-benzothiazepin-4(5H)-yl)-6-methylquinolin-4-amine]
7.89 µM	–	Cc1ccc2nc(N3CCS(=O)(=O)c4ccccc4C3)cc(Nc3cccc(N)c3)c2c1 [Example 15-1, N-[2-(1,1-Dioxido-2,3-dihydro-1,4-benzothiazepin-4(5H)-yl)-6-methylquinolin-4-yl]benzene-1,3-diamine]
0.085 µM	–	Cc1ccc2nc(N3CCS(=O)(=O)c4ccccc4C3)cc(N3C[C@H](O)[C@@H](O)C3)c2c1 [Example 3-34, (3S,4S)-1-[2-(1,1-Dioxido-2,3-dihydro-1,4-benzothiazepin-4(5H)-yl)-6-methylquinolin-4-yl]pyrrolidine-3,4-diol]
